Source: patent publication US5070210A, “Novel ketenimines as intermediates for insecticides” (ICI Americas Inc., priority 1990, dated 1991)

Key:
Assay type in all cases: in vivo
[1] = system: Aster Leafhopper [Macrosteles fascifrens (Stal)]; assay: Aster leafhopper insecticidal test; details: adults/nymphs, percent in solution; 48 hours
Summary of the method: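 Three ~10 cm oat seedlings per cup were dipped 2-3 seconds in 50-50 acetone-water compound solutions, dried, and caged with ten adult/nymph leafhoppers. Mortality was counted after 48 hours at concentrations from 0.05% downward. LC50, as percent compound in solution, came from dosage-mortality curves.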

[2] = system: Maize weevil [Sitophilus Zeamais (Motschulsky)]; assay: Maize weevil insecticidal test; details: adult weevils, percent in solution; 48 hours
Summary of the method: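 LC50, in percent of compound in solution, was derived from dosage-mortality curves after 48 h at about 25 °C. Ten adult weevils per container fed on four corn seeds briefly immersed in acetone:water (50:50) solutions of up to 0.01% and dried.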

[3] = system: Housefly [Musca domestica]; assay: Housefly insecticidal test; details: μg per 25 female flies; mortality after 48 hours
Summary of the method: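 Residual contact test: acetone dilution, 0.01% peanut oil spreader, solvent evaporated; 25 ♀ flies (1-2 d old) per cage; sugar-water plug; 48 h mortality read. LC50 in μg/25 female flies, from dose-mortality curves; top dose 100 μg/25 flies.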

[4] = system: Cabbage Looper [Trichoplusia ni (Hubner)]; assay: Cabbage looper insecticidal test; details: second-instar larvae, percent in solution; 3-5 days
Summary of the method: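 Squash cotyledons dipped in test solution (acetone-water 50-50, ≤0.1%), dried, offered to 5 second-instar larvae; mortality after 3-5 days gives LC50.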

[5] = system: Tobacco Budworm [Heliothis virescens (Fabricius)] eggs; assay: Tobacco budworm egg test; details: 2-day old eggs, percent in solution
Summary of the method: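 Step 1: dip 2-day old egg patches in acetone test solutions (top concentration 0.1%). Step 2: hold in dishes with rearing medium at 78° F. Step 3: record mortality after control hatch and feeding.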

SMILES: C#CC(OC(=Nc1ccc(F)c(Cl)c1)C(C)C)c1cccc(Oc2ccccc2)c1 (stereo not shown) [Compound 533, N-(3-chloro-4-fluorophenyl)-O-[1-(3-phenoxyphenyl)-2-propyn-1-yl]isobutyrimidate]
- LC50, LH [1]: > 0.05%
- LC50, MW [2]: > 0.01%
- LC50, HF [3]: 60 µg
- LC50, CL [4]: > 0.1%
- LC50, TBW, E (TBW-E) [5]: > 0.1%

SMILES: CC(C)C(=Nc1ccc(F)c(Cl)c1)OCC#CCOc1ccccc1 [Compound 534]
- LC50, LH [1]: > 0.05%
- LC50, MW [2]: > 0.01%
- LC50, HF [3]: > 100 µg
- LC50, CL [4]: < 0.1%
- LC50, TBW, E (TBW-E) [5]: > 0.1%

SMILES: CC(C)C(=Nc1ccc(C(F)(F)F)cc1)OCc1cccc(Cc2ccccc2)c1 [Compound 535]
- LC50, LH [1]: > 0.05%
- LC50, MW [2]: > 0.01%
- LC50, HF [3]: 41 µg
- LC50, CL [4]: > 0.1%
- LC50, TBW, E (TBW-E) [5]: > 0.1%

SMILES: Cc1c(COC(=Nc2ccc(C(C)(C)C)cc2)C(C)C)cccc1-c1ccccc1 [Compound 536]
- LC50, LH [1]: > 0.05%
- LC50, MW [2]: > 0.01%
- LC50, HF [3]: > 100 µg
- LC50, CL [4]: < 0.1%
- LC50, TBW, E (TBW-E) [5]: > 0.1%

SMILES: CC(C)C(=Nc1ccc(F)c(Cl)c1)OCc1cccc(Cc2ccccc2)c1 [Compound 537]
- LC50, LH [1]: > 0.05%
- LC50, MW [2]: > 0.01%
- LC50, HF [3]: 20 µg
- LC50, CL [4]: > 0.1%
- LC50, TBW, E (TBW-E) [5]: > 0.1%

SMILES: CC(C)C(=Nc1ccc(OC(F)(F)F)cc1)OCc1cccc(Cc2ccccc2)c1 [Compound 538]
- LC50, LH [1]: > 0.05%
- LC50, MW [2]: > 0.01%
- LC50, HF [3]: 75 µg
- LC50, CL [4]: > 0.1%
- LC50, TBW, E (TBW-E) [5]: > 0.1%

SMILES: CC(C)C(=Nc1ccc([N+](=O)[O-])cc1)OCc1coc(Cc2ccccc2)c1 [Compound 539]
- LC50, LH [1]: > 0.05%
- LC50, MW [2]: > 0.01%
- LC50, HF [3]: 22 µg
- LC50, CL [4]: > 0.1%
- LC50, TBW, E (TBW-E) [5]: > 0.1%

SMILES: CC(C)C(=Nc1ccc2c(c1)OCO2)OCc1ccnc(Oc2ccccc2)c1 [Compound 540]
- LC50, LH [1]: > 0.05%
- LC50, MW [2]: > 0.01%
- LC50, HF [3]: > 100 µg
- LC50, CL [4]: < 0.1%
- LC50, TBW, E (TBW-E) [5]: > 0.1%

SMILES: COCc1c(F)c(F)c(COC(=Nc2ccc(C(C)(C)C)cc2)C(C)C)c(F)c1F [Compound 544]
- LC50, LH [1]: > 0.05%
- LC50, MW [2]: > 0.01%
- LC50, HF [3]: > 100 µg
- LC50, CL [4]: > 0.1%
- LC50, TBW, E (TBW-E) [5]: > 0.1%

SMILES: Cc1cccc(N=C(OCc2cccc(Oc3ccc(Cl)cc3)n2)C(C)C)c1 [Compound 545]
- LC50, LH [1]: > 0.05%
- LC50, MW [2]: > 0.01%
- LC50, HF [3]: < 100 µg
- LC50, CL [4]: > 0.1%
- LC50, TBW, E (TBW-E) [5]: > 0.1%

SMILES: C#CCc1c(F)c(F)c(COC(=Nc2cccc(C(F)(F)F)c2)C(C)C)c(F)c1F [Compound 546]
- LC50, LH [1]: < 0.05%
- LC50, MW [2]: 0.0032%
- LC50, HF [3]: < 100 µg
- LC50, CL [4]: 0.0001%
- LC50, TBW, E (TBW-E) [5]: > 0.1%

SMILES: C#CCc1c(F)c(F)c(COC(=Nc2ccc3c(c2)OCO3)C(C)C)c(F)c1F [Compound 547]
- LC50, LH [1]: < 0.05%
- LC50, MW [2]: > 0.01%
- LC50, HF [3]: < 100 µg
- LC50, CL [4]: 0.0005%
- LC50, TBW, E (TBW-E) [5]: 0.05%

SMILES: CC(C)C(=Nc1cccc(C(F)(F)F)c1)OCC#CCOc1ccccc1 [Compound 548]
- LC50, LH [1]: > 0.05%
- LC50, MW [2]: > 0.01%
- LC50, HF [3]: > 100 µg
- LC50, CL [4]: < 0.1%
- LC50, TBW, E (TBW-E) [5]: > 0.1%

SMILES: CC(C)C(=Nc1ccc(F)c(Cl)c1)OCc1cccc(Oc2ccccn2)c1 [Compound 549]
- LC50, LH [1]: > 0.05%
- LC50, MW [2]: > 0.01%
- LC50, HF [3]: < 100 µg
- LC50, CL [4]: > 0.1%
- LC50, TBW, E (TBW-E) [5]: > 0.1%
